This passage reports IC50 and melting point results from patent publication US8486939B2, “Pyrimidinyl and 1,3,5-triazinyl benzimidazoles and their use in cancer therapy” (Pathway Therapeutics Inc., priority 2009, dated 2013).

The target of one data set is p110δ/p85 (Homo sapiens, UniProt O00329). Nature of the data set: Inhibition of isolated enzyme (lipid kinase assay, [γ33P]ATP, TLC). In kind it is biochemical. Conditions: recombinant enzyme, 100 μM ATP, 1 hr room temperature, average of two experiments. As for the experimental part: (§1) Compounds were evaluated for their ability to inhibit Class I PI 3-kinase enzymes p110δ/p85, p110α/p85, and p110β/p85. Reaction mixtures comprising 0.1 μg of a recombinant enzyme, 10 μg of L-α-phosphatidylinositol, and 2× Lipid Kinase Buffer (40 mM Tris-HCl, pH 7.4, 200 mM NaCl, 1 mM EDTA), which contains either DMSO only as a control or the test compound in DMSO (the final DMSO concentration is 1%), were activated by the addition of an ATP mix (5 mM MgCl2, 100 μM ATP, and 0.1 μL [γ^33P]ATP). Reactions were incubated at room temperature for 1 hr, and then stopped by the addition of 1M HCl. The lipids were then extracted using a two step procedure. Firstly, 200 μL of chloroform/methanol (1:1) was added, the biphasic reactions mixed and centrifuged briefly, and the inorganic phase was removed and discarded. Following this, 80 μL of methanol:HCl (1:1) was added and the same procedure followed. The organic phase (70 μL) was then transferred to a clean 1.6 mL tube and the reactions were dried using a Speedvac, with no heating, for […]. The reactions were spotted onto TLC plates (Merck Ltd) and developed for 1 hr in propanol-1:2 M acetic acid (13:7). The TLC plates were then dried at room temperature and quantified using a phosphorimager (StormImager, Amersham). Nine compound concentrations were used for each test compound to determine its IC50 value. Each experiment was performed twice and the average IC50 value is used herein.

The next data set deals with p110α/p85 (Homo sapiens, UniProt P42336). The data set is described as above. It is filed as biochemical. Conditions: recombinant enzyme, 100 μM ATP, 1 hr room temperature, average of two experiments. As for the experimental part:
as §1

A further data set deals with NZOV9. Nature of the data set: Cellular growth inhibition (3H-thymidine incorporation). It is filed as cell-based. The settings on record: Homo sapiens, five days incubation, 3H-thymidine over the last 6 hrs, read-out: Cell IC50* NZOV9. As for the experimental part: (§2) The compounds were evaluated against two early passage human cell lines NZB5 and NZOV9 (Marshall et al., Oncol. Res. 2004, 14, 297). The cells were grown in ITS medium (α-modified minimal essential medium supplemented insulin, transferrin, selenite, and 5% fetal bovine serum) and grown on 96-well tissue culture plates under an atmosphere of 5% O2, 5% CO2, and 90% N2. Individual wells contained 500-1,000 cells (depending on the growth rate) in a volume of 150 μL. Compounds were added at 10-fold concentration steps to a maximum of 20 μM and plates were incubated for five days, with ^3H-thymidine being added over the last 6 hrs. Cells were harvested and incorporated radioactivity measured. Duplicate samples were analyzed for each compound dose with multiple control samples. Data were fitted by a least-squares method to an exponential of the form y=y0+ae^−bx, where y is the radioactivity (corrected for background and normalized to 100% of the control), x is the […], and y0, a, and b are variables, and the IC50 value defined as the compound concentration reducing ^3H-thymidine levels by 50%.
A general note: Incorporation of labelled thymidine or its analogues reports DNA synthesis.

The next data set concerns NZB5. The data set is described as above. The settings on record: Homo sapiens, five days incubation, 3H-thymidine over the last 6 hrs, read-out: Cell IC50* NZB5. It is filed as cell-based. As for the experimental part: as §2

Sequence of p110δ/p85 (O00329 whole entry, species assumed): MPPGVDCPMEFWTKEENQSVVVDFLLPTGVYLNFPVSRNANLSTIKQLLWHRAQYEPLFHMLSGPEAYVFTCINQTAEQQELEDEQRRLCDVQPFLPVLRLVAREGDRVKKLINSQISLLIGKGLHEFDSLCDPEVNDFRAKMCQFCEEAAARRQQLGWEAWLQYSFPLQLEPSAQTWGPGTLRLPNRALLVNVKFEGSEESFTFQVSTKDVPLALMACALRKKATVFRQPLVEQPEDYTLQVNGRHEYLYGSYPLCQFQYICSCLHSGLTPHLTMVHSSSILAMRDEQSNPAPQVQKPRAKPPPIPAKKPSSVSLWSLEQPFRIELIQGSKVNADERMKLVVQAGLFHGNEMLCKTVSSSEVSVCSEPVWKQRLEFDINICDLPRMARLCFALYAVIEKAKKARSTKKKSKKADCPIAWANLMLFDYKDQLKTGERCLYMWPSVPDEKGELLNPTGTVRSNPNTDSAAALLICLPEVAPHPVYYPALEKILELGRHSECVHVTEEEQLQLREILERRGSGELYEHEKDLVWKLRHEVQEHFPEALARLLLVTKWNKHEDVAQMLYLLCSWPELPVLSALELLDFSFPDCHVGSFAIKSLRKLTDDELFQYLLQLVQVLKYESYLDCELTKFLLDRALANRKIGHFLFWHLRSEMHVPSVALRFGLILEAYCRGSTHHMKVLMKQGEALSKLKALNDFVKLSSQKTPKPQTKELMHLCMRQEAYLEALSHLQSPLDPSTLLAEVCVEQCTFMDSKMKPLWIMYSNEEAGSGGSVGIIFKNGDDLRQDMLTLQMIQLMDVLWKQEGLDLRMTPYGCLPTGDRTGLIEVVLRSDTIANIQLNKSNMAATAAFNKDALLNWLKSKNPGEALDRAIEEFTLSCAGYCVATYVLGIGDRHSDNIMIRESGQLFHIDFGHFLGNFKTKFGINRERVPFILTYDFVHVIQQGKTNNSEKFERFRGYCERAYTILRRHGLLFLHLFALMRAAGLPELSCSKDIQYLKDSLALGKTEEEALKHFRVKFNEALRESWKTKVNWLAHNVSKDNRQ
Sequence of p110δ/p85 (P27986 whole entry partner, species assumed): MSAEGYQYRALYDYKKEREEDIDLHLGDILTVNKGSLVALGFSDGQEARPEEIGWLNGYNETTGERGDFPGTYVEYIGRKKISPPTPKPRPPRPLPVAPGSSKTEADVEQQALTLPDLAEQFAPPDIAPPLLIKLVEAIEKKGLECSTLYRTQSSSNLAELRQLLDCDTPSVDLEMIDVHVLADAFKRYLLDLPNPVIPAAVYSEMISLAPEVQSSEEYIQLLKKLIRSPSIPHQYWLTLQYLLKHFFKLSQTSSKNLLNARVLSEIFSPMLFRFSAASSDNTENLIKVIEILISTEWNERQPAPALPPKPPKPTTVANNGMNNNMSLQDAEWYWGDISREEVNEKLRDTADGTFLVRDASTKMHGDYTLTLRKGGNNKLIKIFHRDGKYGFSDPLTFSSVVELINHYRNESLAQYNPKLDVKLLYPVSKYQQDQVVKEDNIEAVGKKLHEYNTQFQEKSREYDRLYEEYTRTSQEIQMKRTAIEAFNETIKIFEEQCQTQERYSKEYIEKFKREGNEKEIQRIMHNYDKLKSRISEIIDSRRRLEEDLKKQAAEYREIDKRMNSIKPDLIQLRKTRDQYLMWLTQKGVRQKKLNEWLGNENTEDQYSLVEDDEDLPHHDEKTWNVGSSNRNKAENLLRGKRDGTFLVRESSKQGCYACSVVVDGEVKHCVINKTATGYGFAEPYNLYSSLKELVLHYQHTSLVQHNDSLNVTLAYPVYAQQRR
Sequence of p110α/p85 (P42336 whole entry): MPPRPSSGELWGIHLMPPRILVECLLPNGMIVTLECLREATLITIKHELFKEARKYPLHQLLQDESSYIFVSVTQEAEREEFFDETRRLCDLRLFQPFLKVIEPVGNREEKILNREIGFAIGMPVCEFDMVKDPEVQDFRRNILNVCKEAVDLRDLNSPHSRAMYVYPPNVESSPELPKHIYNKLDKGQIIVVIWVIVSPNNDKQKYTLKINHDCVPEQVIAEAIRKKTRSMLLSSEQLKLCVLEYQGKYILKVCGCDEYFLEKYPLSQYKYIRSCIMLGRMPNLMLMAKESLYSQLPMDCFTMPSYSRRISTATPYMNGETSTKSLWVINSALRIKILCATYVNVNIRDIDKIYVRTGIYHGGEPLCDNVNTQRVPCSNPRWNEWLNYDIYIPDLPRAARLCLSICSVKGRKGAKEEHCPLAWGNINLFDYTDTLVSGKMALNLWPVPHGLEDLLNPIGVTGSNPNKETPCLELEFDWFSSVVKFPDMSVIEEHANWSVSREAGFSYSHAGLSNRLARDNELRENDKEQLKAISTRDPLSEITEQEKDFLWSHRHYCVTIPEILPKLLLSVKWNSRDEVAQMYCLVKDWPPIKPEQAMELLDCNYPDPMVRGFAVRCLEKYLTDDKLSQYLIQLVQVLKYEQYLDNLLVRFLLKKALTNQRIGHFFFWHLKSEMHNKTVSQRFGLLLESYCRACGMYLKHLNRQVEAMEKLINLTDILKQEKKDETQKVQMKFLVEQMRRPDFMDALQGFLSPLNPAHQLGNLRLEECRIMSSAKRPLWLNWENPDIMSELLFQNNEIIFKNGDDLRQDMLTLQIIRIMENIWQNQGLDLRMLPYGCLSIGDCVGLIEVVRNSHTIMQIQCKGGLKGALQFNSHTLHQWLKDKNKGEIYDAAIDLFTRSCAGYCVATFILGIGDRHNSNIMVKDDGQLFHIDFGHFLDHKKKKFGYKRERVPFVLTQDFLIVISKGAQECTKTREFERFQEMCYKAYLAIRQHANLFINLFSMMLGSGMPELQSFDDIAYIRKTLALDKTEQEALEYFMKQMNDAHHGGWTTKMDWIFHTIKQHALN
Sequence of p110α/p85 (P27986 whole entry partner): as the sequence (P27986 whole entry partner, species assumed) above

The IC50 is the concentration that inhibits the measured activity by half. Usually melting point stands for the temperature of the solid-liquid transition. `COc1cccc2c1nc(C(F)F)n2-c1nc(-c2ccc(N)nc2)nc(N2CCOCC2)n1` [Example 49, 5-[4-[2-(difluoromethyl)-4-methoxy-1H-benzimidazol-1-yl]-6-(4-morpholinyl)-1,3,5-triazin-2-yl]-2-pyridinamine] registered a melting point of 259 to 261 °C. On p110δ/p85, the IC50 was less than 100 nM. Further, the IC50 at p110α/p85 is less than 100 nM.
Compound `FC(F)c1nc2ccccc2n1-c1nc(-c2cccnc2)cc(N2CCOCC2)n1` [Example 51, 2-(difluoromethyl)-1-[4-(4-morpholinyl)-6-(3-pyridinyl)-2-pyrimidinyl]-1H-benzimidazole] yielded a melting point of 172 to 179 °C. Besides, the IC50 on p110δ/p85 is 100 to 1000 nM. For the same compound, the concentration for half-maximal inhibition (IC50) on p110α/p85 lay within 100 to 1000 nM.
As to `COc1cccc2c1nc(C(F)F)n2-c1nc(Nc2cnc(Cl)nc2)nc(N2CCOCC2)n1` [Example 41, N-(2-chloro-5-pyrimidinyl)-4-[2-(difluoromethyl)-4-methoxy-1H-benzimidazol-1-yl]-6-(4-morpholinyl)-1,3,5-triazin-2-amine], the melting point was 295 °C (dec.). At p110δ/p85, the IC50 is less than 100 nM. The IC50 on p110α/p85 was less than 100 nM.
The compound `COc1cccc2c1nc(C(F)F)n2-c1nc(-c2cccnc2)cc(N2CCOCC2)n1` [Example 52, 2-(difluoromethyl)-4-methoxy-1-[4-(4-morpholinyl)-6-(3-pyridinyl)-2-pyrimidinyl]-1H-benzimidazole] registered a melting point of 208 to 210 °C. The half-maximal inhibitory concentration (IC50) on p110δ/p85 is less than 100 nM. For the same compound, the half-inhibitory concentration (IC50) on p110α/p85 is less than 100 nM.
Regarding `CN(c1cncnc1)c1nc(N2CCOCC2)nc(-n2c(C(F)F)nc3ccccc32)n1` [Example 44, 4-[2-(difluoromethyl)-1H-benzimidazol-1-yl]-N-methyl-6-(4-morpholinyl)-N-(5-pyrimidinyl)-1,3,5-triazin-2-amine], the melting point lay within 202 to 205 °C. Further, on p110δ/p85, the IC50 is less than 100 nM. Besides, the IC50 on p110α/p85 was less than 100 nM.
`FC(F)c1nc2ccccc2n1-c1nc(NCc2ccncc2)nc(N2CCOCC2)n1` [Example 15, 4-[2-(difluoromethyl)-1H-benzimidazol-1-yl]-6-(4-morpholinyl)-N-(4-pyridinylmethyl)-1,3,5-triazin-2-amine] came in with a melting point of 188 to 190 °C. Also, the IC50 at p110α/p85 was 100 to 1000 nM. Also, in the data set with NZOV9, the IC50 lay in the range of 100 to 1000 nM. Also, the IC50 with NZB5 was in the range of 100 to 1000 nM.
`FC(F)c1nc2ccccc2n1-c1nc(-c2cncnc2)cc(N2CCOCC2)n1` [Example 55, 2-[2-(difluoromethyl)-1H-benzimidazol-1-yl]-6-(4-morpholinyl)-4,5′-bipyrimidine] gave a melting point of 209 to 211 °C. In addition, the 50% inhibitory concentration (IC50) on p110δ/p85 was in the range of 100 to 1000 nM. For the same compound, the IC50 at p110α/p85 fell in the range of 100 to 1000 nM.
Turning to `COc1cccc2c1nc(C(F)F)n2-c1nc(N2CCOCC2)nc(N(C)c2cncnc2)n1` [Example 45, 4-[2-(difluoromethyl)-4-methoxy-1H-benzimidazol-1-yl]-N-methyl-6-(4-morpholinyl)-N-(5-pyrimidinyl)-1,3,5-triazin-2-amine], the melting point lay in the range of 214 to 217 °C. The half-inhibitory concentration (IC50) at p110δ/p85 was less than 100 nM. On p110α/p85, the 50% inhibitory concentration (IC50) was less than 100 nM.
For the compound `COc1cccc2c1nc(C(F)F)n2-c1nc(Nc2cnc(N(C)CCCN(C)C)nc2)nc(N2CCOCC2)n1` [Example 43, N^5-[4-[2-(difluoromethyl)-4-methoxy-1H-benzimidazol-1-yl]-6-(4-morpholinyl)-1,3,5-triazin-2-yl]-N^2-[3-(dimethylamino)propyl]-N^2-methyl-2,5-pyrimidinediamine], the melting point was in the range of 97 to 99 °C. At p110δ/p85, the half-inhibitory concentration (IC50) was less than 100 nM. In addition, the IC50 on p110α/p85 is less than 100 nM.
Take `COc1cccc2c1nc(C(F)F)n2-c1nc(N2CCOCC2)nc(-n2cccn2)n1` [Example 63, 2-(Difluoromethyl)-4-methoxy-1-[4-(4-morpholinyl)-6-(1H-pyrazol-1-yl)-1,3,5-triazin-2-yl]-1H-benzimidazole]: the melting point is 274 to 277 °C. The IC50 at p110δ/p85 was less than 100 nM. For the same compound, the IC50 at p110α/p85 is less than 100 nM.
In the case of `COc1cccc2c1nc(C(F)F)n2-c1nc(N2CCOCC2)c2ncn(-c3cncnc3)c2n1` [Example 60, 2-[2-(difluoromethyl)-4-methoxy-1H-benzimidazol-1-yl]-6-(4-morpholinyl)-9-(5-pyrimidinyl)-9H-purine], the melting point was in the range of 248 to 251 °C. Also, the IC50 on p110δ/p85 was less than 100 nM. The half-maximal inhibitory concentration (IC50) on p110α/p85 was less than 100 nM.
Consider `COc1cccc2c1nc(C(F)F)n2-c1nc(-c2cccnc2)nc(N2CCOCC2)n1` [Example 48, 2-(difluoromethyl)-4-methoxy-1-[4-(4-morpholinyl)-6-(3-pyridinyl)-1,3,5-triazin-2-yl]-1H-benzimidazole], for which the melting point is 208 to 210 °C. Besides, the concentration for half-maximal inhibition (IC50) on p110δ/p85 was less than 100 nM. For the same compound, the IC50 on p110α/p85 was less than 100 nM.
Compound `FC(F)c1nc2ccccc2n1-c1nc(Nc2ncccn2)nc(N2CCOCC2)n1` [Example 19, 4-[2-(difluoromethyl)-1H-benzimidazol-1-yl]-6-(4-morpholinyl)-N-(2-pyrimidinyl)-1,3,5-triazin-2-amine] came in with a melting point of 261 to 263 °C. Further, at p110α/p85, the IC50 fell in the range of 100 to 1000 nM. Moreover, the concentration for half-maximal inhibition (IC50) with NZOV9 fell in the range of 100 to 1000 nM. Also, the IC50 in the data set with NZB5 lay within 100 to 1000 nM.
Compound `COc1cccc2c1nc(C(F)F)n2-c1nc(-c2cncnc2)cc(N2CCOCC2)n1` [Example 56, 2-[2-(difluoromethyl)-4-methoxy-1H-benzimidazol-1-yl]-6-(4-morpholinyl)-4,5′-bipyrimidine] had a melting point of 222 to 224 °C. Moreover, on p110δ/p85, the concentration for half-maximal inhibition (IC50) is 100 to 1000 nM. At p110α/p85, the IC50 is less than 100 nM.
For the compound `COc1cc(N)cc2c1nc(C(F)F)n2-c1nc(N2CCOCC2)nc(-n2cccn2)n1` [Example 64, 2-(Difluoromethyl)-4-methoxy-1-[4-(4-morpholinyl)-6-(1H-pyrazol-1-yl)-1,3,5-triazin-2-yl]-1H-benzimidazol-6-ylamine], the concentration for half-maximal inhibition (IC50) at p110δ/p85 and on p110α/p85 was less than 100 nM in each case.
`COc1cccc2c1nc(C(F)F)n2-c1nc(Nc2cnc(N(C)CCN(C)C)nc2)nc(N2CCOCC2)n1` [Example 42, N^5-[4-[2-(difluoromethyl)-4-methoxy-1H-benzimidazol-1-yl]-6-(4-morpholinyl)-1,3,5-triazin-2-yl]-N^2-[2-(dimethylamino)ethyl]-N^2-methyl-2,5-pyrimidinediamine]: the melting point was in the range of 96 to 98 °C. Besides, on p110δ/p85, the IC50 was less than 100 nM. Moreover, the IC50 on p110α/p85 was less than 100 nM.
`COc1cc(N)cc2c1nc(C(F)F)n2-c1nc(-c2ccn(C)n2)nc(N2CCOCC2)n1` [Example 65, 2-(Difluoromethyl)-4-methoxy-1-[4-(1-methyl-1H-pyrazol-3-yl)-6-(4-morpholinyl)-1,3,5-triazin-2-yl]-1H-benzimidazol-6-ylamine]: the IC50 on p110δ/p85 and at p110α/p85 was less than 100 nM throughout.
Turning to `COc1cc(N)cc2c1nc(C(F)F)n2-c1nc(-c2cccnc2)cc(N2CCOCC2)n1` [Example 68, 2-(Difluoromethyl)-4-methoxy-1-[4-(4-morpholinyl)-6-(3-pyridinyl)-2-pyrimidinyl]-1H-benzimidazol-6-ylamine], the IC50 on p110δ/p85 and at p110α/p85 was less than 100 nM throughout.
As to `COc1ncc(-c2cc(N3CCOCC3)nc(-n3c(C(F)F)nc4c(OC)cccc43)n2)cn1` [Example 57, 2-[2-(difluoromethyl)-4-methoxy-1H-benzimidazol-1-yl]-6-(4-morpholinyl)-2′-methoxy-4,5′-bipyrimidine], the melting point fell in the range of 238 to 241 °C. The IC50 on p110δ/p85 fell in the range of 100 to 1000 nM. In addition, the IC50 at p110α/p85 was less than 100 nM.
Regarding `COc1cc(N)cc2c1nc(C(F)F)n2-c1nc(-c2cn[nH]c2)nc(N2CCOCC2)n1` [Example 66, 2-(Difluoromethyl)-4-methoxy-1-[4-(4-morpholinyl)-6-(1H-pyrazol-4-yl)-1,3,5-triazin-2-yl]-1H-benzimidazol-6-ylamine], the IC50 on p110δ/p85 and on p110α/p85 was less than 100 nM each time.
Compound `COc1cccc2c1nc(C(F)F)n2-c1nc(-c2cn[nH]c2)nc(N2CCOCC2)n1` [Example 50, 2-(Difluoromethyl)-4-methoxy-1-[4-(4-morpholinyl)-6-(1H-pyrazol-4-yl)-1,3,5-triazin-2-yl]-1H-benzimidazole] displayed a melting point of 289 to 291 °C.
